Source: PubChem BioAssay (NCI)
“And” between values parts separate entries of the source, which are not always exact repeats. Equal values may be shown once.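 Cells were grown in 96-well plates and exposed to each compound for 48 hours at five concentrations; endpoints were interpolated linearly between bracketing concentrations, or set to the highest concentration if not reached. GI50: concentration for 50% inhibition of growth. Definition used: TGI = concentration required for complete inhibition of growth.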

Experiments:
Test in all cases: NCI anticancer screen, dose series, 48 h
M14 melanoma = system: M14 melanoma
SK-MEL-5 melanoma = system: SK-MEL-5 melanoma
UACC-257 melanoma = system: UACC-257 melanoma
HT29 colon = system: HT29 colon
OVCAR-3 ovarian = system: OVCAR-3 ovarian
OVCAR-5 ovarian = system: OVCAR-5 ovarian
MOLT-4 leukemia = system: MOLT-4 leukemia
SF-295 CNS = system: SF-295 CNS
EKVX NSCLC = system: EKVX NSCLC
SK-OV-3 ovarian = system: SK-OV-3 ovarian
RXF 393 renal = system: RXF 393 renal
PC-3 prostate = system: PC-3 prostate
RPMI-8226 leukemia = system: RPMI-8226 leukemia
DU-145 prostate = system: DU-145 prostate
NCI-H522 lung = system: NCI-H522 lung
TK-10 renal = system: TK-10 renal

| SMILES | TGI (M14 melanoma) | TGI (SK-MEL-5 melanoma) | TGI (UACC-257 melanoma) | TGI (HT29 colon) | TGI (OVCAR-3 ovarian) | TGI (OVCAR-5 ovarian) | TGI (MOLT-4 leukemia) | TGI (SF-295 CNS) | TGI (EKVX NSCLC) | TGI (SK-OV-3 ovarian) | TGI (RXF 393 renal) | TGI (PC-3 prostate) | TGI (RPMI-8226 leukemia) | TGI (DU-145 prostate) | TGI (NCI-H522 lung) | TGI (TK-10 renal) | GI50 (PC-3 prostate) | GI50 (DU-145 prostate) |
| --- | --- | --- | --- | --- | --- | --- | --- | --- | --- | --- | --- | --- | --- | --- | --- | --- | --- | --- |
| O=C(Nc1ccccc1C(=O)O)/C(=C/c1ccccc1)NC(=O)c1ccccc1 | > 100 µM | > 100 µM | > 100 µM | > 100 µM | > 100 µM | > 100 µM | > 100 µM | > 100 µM | > 100 µM | > 100 µM | > 100 µM | > 100 µM | > 100 µM | > 100 µM | > 100 µM |  |  |  |
| O=C1NC(=O)C(C(c2ccc(Cl)cc2)C2C(=O)NC(=O)NC2=O)C(=O)N1 | > 100 µM | > 100 µM | > 100 µM | > 100 µM | > 100 µM | > 100 µM | > 100 µM | > 100 µM | > 100 µM |  | > 100 µM | > 100 µM | > 100 µM | > 100 µM | > 100 µM | > 100 µM |  |  |
| O=P1(Oc2ccc(Cl)cc2)OCCS1 (stereo not given) | > 100 µM | > 100 µM | > 100 µM | > 100 µM |  | > 100 µM |  | > 100 µM | > 100 µM | > 100 µM | > 100 µM | > 100 µM | > 100 µM | > 100 µM | > 100 µM | > 100 µM |  |  |
| COC(=O)C1C2C=CC(C2)N1S(=O)(=O)c1ccccc1 (stereo not given) | > 100 µM | > 100 µM |  | > 100 µM | > 100 µM | > 100 µM | > 100 µM | > 100 µM |  | > 100 µM | > 100 µM | > 100 µM | > 100 µM | > 100 µM | > 100 µM | > 100 µM |  |  |
| Cc1c[nH]c(C(=O)O)c1-c1ccc2c(-c3ccccc3)nc3ccccc3n12 | > 100 µM | > 100 µM | > 100 µM | 70.5 µM | 37.4 µM | > 100 µM | 94.8 µM | 71.1 µM | > 100 µM | > 100 µM | 55.2 µM | > 100 µM |  | > 100 µM | 60.6 µM | > 100 µM |  |  |
| COc1ccc(C2=NN(c3ccccc3)C(c3cc4cc(Br)ccc4nc3Cl)C2)cc1 (stereo not given) | > 25 µM | > 25 µM |  | > 25 µM | > 25 µM | > 25 µM | > 25 µM | > 25 µM | > 25 µM | > 25 µM | > 25 µM | > 25 µM | > 25 µM | > 25 µM | > 25 µM |  |  |  |
| CC(=O)[O-].CC(=O)[O-].[NH2-].[Pt+2].c1ccncc1 | > 100 µM | > 100 µM |  | > 100 µM | > 100 µM | > 100 µM | 27.3 µM | > 100 µM |  | > 100 µM | 64.6 µM | > 100 µM | > 100 µM | 51.9 µM | 44.2 µM | > 100 µM | > 100 µM | 4.62 µM |
| COc1ccc(-n2c(C)nc3ccc(NC4OCC(O)C(O)C4O)cc3c2=O)cc1 (stereo not given) |  | > 100 µM | > 100 µM | 68.5 µM and 80.2 µM | > 100 µM | > 100 µM | 84.7 µM and > 100 µM | > 100 µM | > 100 µM |  | 81.9 µM and 87.8 µM | > 100 µM | 49.4 µM and 61.6 µM | > 100 µM | 72 µM and 55 µM | > 100 µM |  |  |
| C#CCOC(=O)C(N)CSSCC(N)C(=O)O (stereo not given) | > 100 µM | > 100 µM | > 100 µM |  |  | > 100 µM | > 100 µM |  | > 100 µM |  | > 100 µM | > 100 µM | > 100 µM | > 100 µM | > 100 µM | > 100 µM |  |  |
| CC(=O)OCC12C(OC(C)=O)C[C@@H](C)C3(CC(c4ccoc4)OC3=O)C1CCC(O)C21CO1 (stereo not given in full) | > 100 µM | > 100 µM | > 100 µM | > 100 µM | > 100 µM | > 100 µM | > 100 µM | > 100 µM |  |  | > 100 µM | > 100 µM | > 100 µM | > 100 µM | > 100 µM | > 100 µM |  |  |
| COC(=O)/C=C1/N=C(N(C)/N=C/c2ccccc2)NC1=O | > 100 µM | > 100 µM | > 100 µM | > 100 µM | > 100 µM | > 100 µM | > 100 µM | > 100 µM | > 100 µM | > 100 µM | > 100 µM | > 100 µM |  | > 100 µM | > 100 µM | > 100 µM |  |  |
| Oc1c(-c2ccccc2)sc2ccccc12 | 50.6 µM | 54.5 µM | 98.9 µM | 81.6 µM | 36.2 µM | 90.3 µM | 88.6 µM | 45.7 µM | 86.6 µM |  | 45.1 µM | 69.1 µM | 43.5 µM | 59.5 µM | > 100 µM | > 100 µM |  |  |
| Cc1cc2c(cc1C)[n+](=O)c(N1CCN(c3ccc([N+](=O)[O-])cc3)CC1)c(C#N)n2[O-] | > 100 µM | > 100 µM | > 100 µM | > 100 µM |  | > 100 µM |  | 37.8 µM | > 100 µM | 30.9 µM | 29.9 µM | > 100 µM | > 100 µM | > 100 µM | 88.3 µM | 35.3 µM |  |  |
| CN(C)CCNC(=O)c1cccc2nc3cccc(F)c3nc12 | 4.58 µM | 2.38 µM | 3.86 µM | 8.34 µM | 8.97 µM | 7.06 µM | 14.2 µM | 6.79 µM | 6.16 µM |  | 4.11 µM | 4.26 µM | 5.65 µM | 12.9 µM | 2.74 µM | 6.45 µM |  |  |
| COP1(=O)NCc2ncccc2O1 (stereo not given) | > 100 µM | > 100 µM | > 100 µM | > 100 µM | > 100 µM | > 100 µM | > 100 µM | > 100 µM | > 100 µM |  | > 100 µM | > 100 µM | > 100 µM | > 100 µM |  |  |  |  |
| CCOC(=O)c1cc2c([nH]1)C(=O)CC1=C2CCN1Cc1ccccc1 |  |  | 36.1 µM | 30.8 µM |  |  | 17 µM | 34.2 µM | 37.4 µM | 37.1 µM | 30.5 µM | 47.2 µM | 16.6 µM | 28.6 µM | 38.5 µM | 30 µM |  |  |
| CC(C)CC(=O)NC(NC(C)C)(C(F)(F)F)C(F)(F)F |  | > 100 µM | > 100 µM | > 100 µM |  |  | > 100 µM |  | > 100 µM |  | > 100 µM | > 100 µM | > 100 µM | > 100 µM | > 100 µM | > 100 µM |  |  |
| O=C(CCc1ccc(O)c(O)c1)NCCc1cc(OCc2ccccc2)cc(OCc2ccccc2)c1 | 34 µM | 28.7 µM | > 100 µM | 77.8 µM | > 100 µM | 30.1 µM |  | 38.9 µM | 29.3 µM | 31.3 µM | 36.8 µM | 29.8 µM | > 100 µM | 32.3 µM | 4.62 µM | 41.5 µM |  |  |
| O=C(OCC12CC3CC(CC(C3)C1)C2)c1ccc(NCc2cc(O)ccc2O)cc1 | 5.77 µM | 2.9 µM | 3.28 µM | 14.6 µM | 1.67 µM | 4.71 µM |  | 17.7 µM | 9.26 µM | 20.4 µM | 3.03 µM | 4.88 µM | 1.68 µM | 18.7 µM | 0.854 µM | 4.83 µM |  |  |
| COc1ccc(C(C2C(=O)N(C)C(=O)N(C)C2=O)C(F)(F)C(=O)N(C)C)cc1 (stereo not given) | > 100 µM | > 100 µM | > 100 µM |  | > 100 µM | > 100 µM |  | > 100 µM | > 100 µM | > 100 µM | > 100 µM | > 100 µM | > 100 µM | > 100 µM |  | > 100 µM |  |  |
| CCCCCC(=O)OCC1(CO)C/C(=C\CC(C(C)C)C(C)C)C(=O)O1 (stereo not given) | > 100 µM | > 100 µM | > 100 µM | > 100 µM | > 100 µM | > 100 µM | 61.8 µM | > 100 µM | > 100 µM | > 100 µM | > 100 µM | > 100 µM |  | > 100 µM | 81.3 µM | > 100 µM |  |  |
| CCOC(=O)c1cc(C2CCN(Cc3ccccc3)C2=O)c(C(=O)C(=[N+]=[N-])C(C)=O)[nH]1 (stereo not given) | > 100 µM | > 100 µM | > 100 µM | > 100 µM | > 100 µM | > 100 µM | > 100 µM | > 100 µM | > 100 µM | > 100 µM | > 100 µM | > 100 µM | > 100 µM | > 100 µM |  |  |  |  |
| COC(=O)NN=C(c1ccc(Cl)cc1)c1ccc(Cl)cc1 | > 100 µM | > 100 µM | > 100 µM | > 100 µM | > 100 µM | > 100 µM | > 100 µM |  | > 100 µM | > 100 µM | > 100 µM | > 100 µM | > 100 µM | > 100 µM | > 100 µM | > 100 µM |  |  |
| Cc1ccc2c(=O)c(-c3nnc(N)s3)c[nH]c2n1 | > 100 µM | > 100 µM | > 100 µM | > 100 µM | > 100 µM | > 100 µM | > 100 µM | > 100 µM | > 100 µM |  | > 100 µM | > 100 µM | > 100 µM | > 100 µM | > 100 µM | > 100 µM |  |  |
